The conditions of series [1]: diet supplementation; cited from earlier work.
For series [2], the system named is Arthrospira platensis 3054-E0001. Nature of the series: Selenium enrichment of Arthrospira platensis microalga cultured with a selenium source, autotrophic conditions; analysis of selenium components. The series is classed as cell-based. Particulars: 25 mgSe/l added once just after inoculation (T=0); 10 days incubation; mean of triplicate. As for the experimental part: In these tests, the strain used is a strain of Arthrospira platensis 3054-E0001.
The 3054-50001 strain was cultured under autotrophic conditions in the following medium:
(§1) The pH was adjusted to 7.2 and the medium was autoclaved at 121° C. for 15 minutes.
The organic source of selenium, namely 2-hydroxy-4-methylselenobutanoic acid (THD-177, Tetrahedron SAS, France, CAS: 873660-49-2) was administered at a concentration of 25 mg/l on a selenium equivalent basis, i.e. 62.5 mg/l of 2-hydroxy-4-methylselenobutanoic acid.
The inorganic selenium source ([…], sodium selenite) was administered at a concentration of 25 mg/l on a selenium equivalent basis, i.e. 54.4 mg/l of sodium selenite.
The compound containing selenium was added just one time, just after the inoculation with the Arthrospira platensis strain (i.e. T=0).
After incubation for 10 days, the cell pellet was filtered through a 0.2 micron Nalgene membrane, and the cell retentate was rinsed with physiological saline. The wet cell mass was lyophilized for analysis of the constituents containing selenium (total selenium, selenomethionine and sodium selenite).
(§2) The total selenium was assayed by ICP coupled to detection by mass, after mineralization of the sample. The speciation of the selenium was carried out by high performance liquid chromatography coupled to tandem mass detection, after enzyme digestion of the sample, according to the method described by Lobinsky et al., in Mester, Z. et al. (2006) Annal. Bioanal. Chem. 385: 168-180.
Table 2 below indicates the average values, on a selenium equivalent basis, obtained in triplicate for incubation times of 10 days.
In these tests, the strain used is a strain of Arthrospira platensis 3054-E0001. […]

In series [3] the test system is Chlorella vulgaris SAG211-11B. Nature of the series: Selenium enrichment of Chlorella vulgaris microalga cultured with a selenium source, mixotrophic conditions; analysis of selenium components. Format: cell-based. Conditions: 20 mgSe/l added once in exponential growth phase; 7 days incubation; mean of triplicate. The procedure: In these tests, the strain used is a strain of Chlorella vulgaris SAG211-11B: an axenic strain originating from the SAG collection of the University of Göttingen (SAG: Sammlung von Algenkulturen der Universität Göttingen [Collection of Alga Cultures of the University of Göttingen]) which was cultured under mixotrophic conditions in the following medium:
as §1
The organic source of selenium, namely 2-hydroxy-4-methylselenobutanoic acid (THD-177, Tetrahedron SAS, France, CAS: 873660-49-2) was administered at a concentration of 20 mg/l on a selenium equivalent basis, i.e. 50 mg/l of 2-hydroxy-4-methylselenobutanoic acid.
The inorganic selenium source ([…], sodium selenite) was administered at a concentration of 20 mg/l on a selenium equivalent basis, i.e. 43.9 mg/l of sodium selenite.
The compound containing selenium was added just one time in the exponential growth phase of the Chlorella vulgaris strain (i.e. 3 days after the inoculation).
After incubation for 7 days, the medium was filtered through a 0.2 micron Nalgene membrane (Ref a-PES, diameter 90 mm), and the cell retentate was rinsed with physiological saline. The wet cell mass was lyophilized for analysis of the constituents containing selenium (total selenium, selenomethionine and sodium selenite).
as §2
Table 1 below indicates the average values, on a selenium equivalent basis, obtained in triplicate for incubation times of 7 days.

Structures are written as SMILES.

Here are results for 2 molecules from patent US9017985B2, “Photosynthetic microorganisms enriched in selenium using selenohydroxy acid compounds, used thereof in nutrition, cosmetics and pharmacy” (Metabolium, priority 2008, dated 2015).

As to `C[Se]CC[C@H](N)C(=O)O` [L(+)-selenomethionine], the “Toxicity compared with an intake in the form of sodium selenite” value in series [1] is reported as “much less toxic”.

As for `O=[Se](O)O` [NaSe, sodium selenite], in series [2], the “Se(IV)” value is reported as 5.1 ± 0.3 mgSe/kg biomass, the SeMethionine came to 13 ± 3 mgSe/kg biomass and the “Total Se” value is reported as 177 ± 2 mgSe/kg biomass. Moreover, in series [3], the “Se(IV)” value is 4.1 ± 0.4 mgSe/kg biomass, the SeMethionine came out at 29 ± 2 mgSe/kg biomass and the “Total Se” value is on record as 144 ± 5 mgSe/kg biomass.
